Earlier results in article PMC4387274, “A phase 1 dose escalation study of BI 831266, an inhibitor of Aurora kinase B, in patients with advanced solid tumors” (Investigational New Drugs, 2014).

Experiments:
acute myeloid leukemia = system: acute myeloid leukemia; design: method as in PMID 23605952; settings: compared with low-dose cytosine arabinoside control arm
[1] = 121 patients with solid malignancies

| Structure (SMILES) | Safety in ongoing phase 1 study (solid malignancies; 105 mg in Schedule A) | Objective responses (solid malignancies; [1]) | Patients achieving SD (solid malignancies; [1]) | Objective clinical response rate (acute myeloid leukemia) |
| --- | --- | --- | --- | --- |
| CC(C)NC(=O)[C@H]1CCC[C@H]1Nc1nc(Nc2ccc(C(=O)N(C)C3CCN(C)CC3)cc2)ncc1C(F)(F)F [BI 811283] | no significant safety issues | no objective responses | a third of the patients |  |
| CCN(CCCOc1ccc2c(Nc3cc(CC(=O)Nc4cccc(F)c4)n[nH]3)ncnc2c1)CCOP(=O)(O)O [barasertib] |  |  |  | superior objective clinical response rate |
